PMC6278935 (Pharmacogenetics and genomics, 2012)
Residue numbers refer to the chain shown, from its start. Names and notes keep the numbering of the source. Values joined by “and” are separate entries in the source; they are usually repeats but may differ in a detail not shown here. Identical values can stand only once. “Also recorded” adds a separate entry of the source. Marks after values point to notes of the source that are not given here.

Assays:
[1] = biological target: UGT2B7 (Homo sapiens, UniProt P16662); test: Glucuronidation screen, UGT2B7-over-expressing cell homogenate; assay type: in vitro ADME; details: 160 μM CLZ or 320 μM dmCLZ; up to 1 mg cell homogenate
[2] = cited from earlier work
[3] = biological target: UGT1A9 (Homo sapiens, UniProt O60656); test: Glucuronidation screen, UGT1A9-over-expressing cell homogenate; assay type: in vitro ADME; details: 160 μM CLZ or 320 μM dmCLZ; up to 1 mg cell homogenate
Chain of UGT1A9 (O60656 26-530): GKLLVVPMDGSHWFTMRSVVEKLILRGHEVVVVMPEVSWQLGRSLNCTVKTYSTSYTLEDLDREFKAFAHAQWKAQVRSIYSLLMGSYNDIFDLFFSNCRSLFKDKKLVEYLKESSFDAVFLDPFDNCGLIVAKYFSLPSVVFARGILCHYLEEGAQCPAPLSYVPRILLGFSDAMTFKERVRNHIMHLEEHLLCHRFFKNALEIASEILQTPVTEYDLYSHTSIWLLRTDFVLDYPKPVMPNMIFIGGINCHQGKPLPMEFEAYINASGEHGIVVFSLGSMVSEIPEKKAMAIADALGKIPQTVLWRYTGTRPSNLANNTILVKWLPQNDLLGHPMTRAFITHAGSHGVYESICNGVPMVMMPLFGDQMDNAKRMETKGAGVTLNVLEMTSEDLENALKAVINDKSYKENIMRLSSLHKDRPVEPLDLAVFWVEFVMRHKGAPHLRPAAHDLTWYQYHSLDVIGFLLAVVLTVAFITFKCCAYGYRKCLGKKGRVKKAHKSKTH

[4] = biological target: T1, UGT1A4^24Thr/48Leu (Homo sapiens, UniProt P22310); test: Glucuronidation by UGT1A4 24Thr/48Leu variant-over-expressing cell homogenate; details: vs wild-type UGT1A4^24Pro/48Leu
T1 sequence (P22310 29-534): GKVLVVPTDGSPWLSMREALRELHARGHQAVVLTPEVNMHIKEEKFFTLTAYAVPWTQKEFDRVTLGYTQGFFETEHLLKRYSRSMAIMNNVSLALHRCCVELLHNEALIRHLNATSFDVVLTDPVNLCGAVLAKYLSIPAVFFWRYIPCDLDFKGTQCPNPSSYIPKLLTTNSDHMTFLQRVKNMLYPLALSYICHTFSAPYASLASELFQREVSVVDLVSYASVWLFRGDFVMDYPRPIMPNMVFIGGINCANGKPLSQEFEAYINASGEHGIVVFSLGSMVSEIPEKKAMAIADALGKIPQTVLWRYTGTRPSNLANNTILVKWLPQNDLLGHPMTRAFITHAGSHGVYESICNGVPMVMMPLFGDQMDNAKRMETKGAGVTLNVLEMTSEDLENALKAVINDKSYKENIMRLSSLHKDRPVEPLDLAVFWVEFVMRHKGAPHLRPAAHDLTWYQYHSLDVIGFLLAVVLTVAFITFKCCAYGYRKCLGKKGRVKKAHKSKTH

[5] = biological target: UGT2B17 (Homo sapiens, UniProt O75795); test: Glucuronidation screen, UGT2B17-over-expressing cell homogenate; assay type: in vitro ADME; details: 160 μM CLZ or 320 μM dmCLZ; up to 1 mg cell homogenate
Chain of UGT2B17 (O75795 24-530): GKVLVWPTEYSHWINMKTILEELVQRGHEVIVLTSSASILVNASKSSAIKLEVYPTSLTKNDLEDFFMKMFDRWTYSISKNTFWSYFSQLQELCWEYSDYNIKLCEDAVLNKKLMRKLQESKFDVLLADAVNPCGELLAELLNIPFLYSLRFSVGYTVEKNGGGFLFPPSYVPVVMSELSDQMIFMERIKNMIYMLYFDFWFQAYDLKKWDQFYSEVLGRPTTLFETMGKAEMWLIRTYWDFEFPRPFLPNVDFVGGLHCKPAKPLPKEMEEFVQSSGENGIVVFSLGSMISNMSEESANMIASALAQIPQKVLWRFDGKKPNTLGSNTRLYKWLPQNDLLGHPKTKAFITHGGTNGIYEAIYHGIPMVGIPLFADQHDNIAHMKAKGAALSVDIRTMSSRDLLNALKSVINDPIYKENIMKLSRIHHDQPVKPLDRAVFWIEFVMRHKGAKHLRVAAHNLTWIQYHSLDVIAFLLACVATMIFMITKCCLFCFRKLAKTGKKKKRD

[6] = biological target: T2, UGT1A4^24Pro/48Val (Homo sapiens, UniProt P22310, L48V); test: Glucuronidation by UGT1A4 24Pro/48Val variant-over-expressing cell homogenate
T2 sequence (P22310 29-534 L48V): T1 sequence (P22310 29-534) with L20V

[7] = biological target: T3, UGT1A4^24Pro/48Leu (Homo sapiens, UniProt P22310); test: Glucuronidation by wild-type UGT1A4-over-expressing HEK 293 cell homogenate; details: 160 μM CLZ or 320 μM dmCLZ; up to 1 mg cell homogenate; UV and MRM detection
T3 sequence (P22310 29-534): T1 sequence (P22310 29-534)

[8] = biological target: UGT1A10 (Homo sapiens, UniProt Q9HAW8); test: Glucuronidation screen, UGT1A10-over-expressing cell homogenate; assay type: in vitro ADME; details: 160 μM CLZ or 320 μM dmCLZ; up to 1 mg cell homogenate
Chain of UGT1A10 (Q9HAW8 26-530): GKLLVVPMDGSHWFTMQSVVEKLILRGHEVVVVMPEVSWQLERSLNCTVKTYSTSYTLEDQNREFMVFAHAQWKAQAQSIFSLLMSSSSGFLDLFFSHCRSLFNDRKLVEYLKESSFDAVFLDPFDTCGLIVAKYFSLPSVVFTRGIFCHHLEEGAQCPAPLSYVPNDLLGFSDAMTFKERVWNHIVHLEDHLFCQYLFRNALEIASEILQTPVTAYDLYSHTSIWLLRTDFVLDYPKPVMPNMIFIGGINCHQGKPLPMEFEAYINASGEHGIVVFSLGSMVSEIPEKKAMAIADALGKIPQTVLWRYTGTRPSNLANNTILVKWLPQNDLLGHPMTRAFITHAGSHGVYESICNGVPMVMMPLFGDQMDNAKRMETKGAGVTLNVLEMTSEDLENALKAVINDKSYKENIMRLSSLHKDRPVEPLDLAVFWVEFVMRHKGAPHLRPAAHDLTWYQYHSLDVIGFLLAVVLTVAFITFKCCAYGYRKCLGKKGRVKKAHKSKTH

[9] = biological target: UGT1A7 (Homo sapiens, UniProt Q9HAW7); test: Glucuronidation screen, UGT1A7-over-expressing cell homogenate; assay type: in vitro ADME; details: 160 μM CLZ or 320 μM dmCLZ; up to 1 mg cell homogenate
Chain of UGT1A7 (Q9HAW7 26-530): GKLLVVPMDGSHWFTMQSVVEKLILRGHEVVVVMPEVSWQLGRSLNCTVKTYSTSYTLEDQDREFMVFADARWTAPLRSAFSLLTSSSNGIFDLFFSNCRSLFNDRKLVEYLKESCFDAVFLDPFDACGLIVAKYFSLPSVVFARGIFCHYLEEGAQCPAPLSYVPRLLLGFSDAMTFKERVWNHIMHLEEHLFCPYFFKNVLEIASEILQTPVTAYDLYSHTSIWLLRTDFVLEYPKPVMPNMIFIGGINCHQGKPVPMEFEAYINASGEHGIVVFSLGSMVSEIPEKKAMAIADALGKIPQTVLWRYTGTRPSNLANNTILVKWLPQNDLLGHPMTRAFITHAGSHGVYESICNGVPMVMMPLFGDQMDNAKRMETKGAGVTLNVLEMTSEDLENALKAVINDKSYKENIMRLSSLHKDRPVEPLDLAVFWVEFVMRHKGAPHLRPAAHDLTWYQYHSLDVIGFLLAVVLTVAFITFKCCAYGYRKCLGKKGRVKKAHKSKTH

[10] = biological target: UGT2B11 (Homo sapiens, UniProt O75310); test: Glucuronidation screen, UGT2B11-over-expressing cell homogenate; assay type: in vitro ADME; details: 160 μM CLZ or 320 μM dmCLZ; up to 1 mg cell homogenate
Chain of UGT2B11 (O75310 22-529): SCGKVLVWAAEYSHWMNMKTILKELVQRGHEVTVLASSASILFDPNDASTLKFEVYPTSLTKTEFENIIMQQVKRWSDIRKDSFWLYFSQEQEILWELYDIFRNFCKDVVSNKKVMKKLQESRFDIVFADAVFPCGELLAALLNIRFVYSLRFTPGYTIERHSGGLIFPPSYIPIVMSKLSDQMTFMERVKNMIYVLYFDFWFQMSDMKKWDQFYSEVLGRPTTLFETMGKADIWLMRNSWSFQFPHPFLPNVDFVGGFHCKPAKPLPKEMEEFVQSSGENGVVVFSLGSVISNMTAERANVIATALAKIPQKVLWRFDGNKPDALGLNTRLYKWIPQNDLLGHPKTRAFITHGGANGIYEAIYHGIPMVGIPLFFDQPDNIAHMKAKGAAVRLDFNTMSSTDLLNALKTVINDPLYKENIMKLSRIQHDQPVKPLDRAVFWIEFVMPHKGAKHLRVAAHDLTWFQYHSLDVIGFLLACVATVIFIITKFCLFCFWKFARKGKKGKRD

[11] = biological target: UGT1A6 (Homo sapiens, UniProt P19224); test: Glucuronidation screen, UGT1A6-over-expressing cell homogenate; assay type: in vitro ADME; details: 160 μM CLZ or 320 μM dmCLZ; up to 1 mg cell homogenate
[12] = biological target: UGT1A3 (Homo sapiens, UniProt P35503); test: Glucuronidation screen, UGT1A3-over-expressing cell homogenate; assay type: in vitro ADME; details: 160 μM CLZ or 320 μM dmCLZ; up to 1 mg cell homogenate; UV and MRM detection
Chain of UGT1A3 (P35503 29-534): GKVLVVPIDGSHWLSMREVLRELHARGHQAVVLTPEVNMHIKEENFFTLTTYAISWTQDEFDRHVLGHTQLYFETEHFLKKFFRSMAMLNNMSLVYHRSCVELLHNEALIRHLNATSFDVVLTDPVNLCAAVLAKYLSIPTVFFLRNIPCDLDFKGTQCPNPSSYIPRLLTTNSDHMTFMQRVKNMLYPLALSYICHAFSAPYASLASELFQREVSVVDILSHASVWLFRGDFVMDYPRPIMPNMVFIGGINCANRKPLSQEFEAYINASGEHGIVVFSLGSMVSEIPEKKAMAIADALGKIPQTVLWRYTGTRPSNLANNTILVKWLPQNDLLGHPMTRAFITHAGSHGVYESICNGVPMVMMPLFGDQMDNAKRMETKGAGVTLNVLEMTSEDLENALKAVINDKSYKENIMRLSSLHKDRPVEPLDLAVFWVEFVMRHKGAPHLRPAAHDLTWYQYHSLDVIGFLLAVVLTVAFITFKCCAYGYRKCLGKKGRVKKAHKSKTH

[13] = biological target: UGT2B4 (Homo sapiens, UniProt P06133); test: Glucuronidation screen, UGT2B4-over-expressing cell homogenate; assay type: in vitro ADME; details: 160 μM CLZ or 320 μM dmCLZ; up to 1 mg cell homogenate
Chain of UGT2B4 (P06133 24-528): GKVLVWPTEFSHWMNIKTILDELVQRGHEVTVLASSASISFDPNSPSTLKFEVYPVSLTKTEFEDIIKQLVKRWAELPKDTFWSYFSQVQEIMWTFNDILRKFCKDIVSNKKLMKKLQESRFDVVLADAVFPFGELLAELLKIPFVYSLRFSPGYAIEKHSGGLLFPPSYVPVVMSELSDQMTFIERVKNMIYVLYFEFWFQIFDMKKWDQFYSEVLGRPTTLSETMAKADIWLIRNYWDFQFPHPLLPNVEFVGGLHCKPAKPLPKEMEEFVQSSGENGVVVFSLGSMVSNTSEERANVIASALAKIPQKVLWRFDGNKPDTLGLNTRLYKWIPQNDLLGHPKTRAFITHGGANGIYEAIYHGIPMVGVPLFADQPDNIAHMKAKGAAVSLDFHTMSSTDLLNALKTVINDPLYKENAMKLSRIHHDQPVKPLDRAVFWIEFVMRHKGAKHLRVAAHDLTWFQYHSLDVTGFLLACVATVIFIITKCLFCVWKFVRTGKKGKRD

[14] = biological target: UGT2B10 (Homo sapiens, UniProt P36537); test: Glucuronidation screen, UGT2B10-over-expressing cell homogenate; assay type: in vitro ADME; details: 160 μM CLZ or 320 μM dmCLZ; up to 1 mg cell homogenate; UV and MRM detection
Chain of UGT2B10 (P36537 24-528): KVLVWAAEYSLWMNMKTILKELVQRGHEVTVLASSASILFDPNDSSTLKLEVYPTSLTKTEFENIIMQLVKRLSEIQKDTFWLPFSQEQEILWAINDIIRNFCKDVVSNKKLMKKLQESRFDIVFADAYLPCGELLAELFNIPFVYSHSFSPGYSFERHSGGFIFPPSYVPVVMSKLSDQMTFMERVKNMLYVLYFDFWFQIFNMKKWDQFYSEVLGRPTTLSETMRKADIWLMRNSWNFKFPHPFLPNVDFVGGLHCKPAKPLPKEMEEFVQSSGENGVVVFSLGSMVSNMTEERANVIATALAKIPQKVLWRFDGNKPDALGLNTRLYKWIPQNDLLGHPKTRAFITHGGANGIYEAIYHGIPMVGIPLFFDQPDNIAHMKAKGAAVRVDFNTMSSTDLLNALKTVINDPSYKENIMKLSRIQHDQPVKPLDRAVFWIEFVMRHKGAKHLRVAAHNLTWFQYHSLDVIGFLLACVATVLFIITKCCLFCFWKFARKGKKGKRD

[15] = biological target: UGT2B15 (Homo sapiens, UniProt P54855); test: Glucuronidation screen, UGT2B15-over-expressing cell homogenate; assay type: in vitro ADME; details: 160 μM CLZ or 320 μM dmCLZ; up to 1 mg cell homogenate
[16] = biological target: UGT1A8 (Homo sapiens, UniProt Q9HAW9); test: Glucuronidation screen, UGT1A8-over-expressing cell homogenate; assay type: in vitro ADME; details: 160 μM CLZ or 320 μM dmCLZ; up to 1 mg cell homogenate
Chain of UGT1A8 (Q9HAW9 26-530): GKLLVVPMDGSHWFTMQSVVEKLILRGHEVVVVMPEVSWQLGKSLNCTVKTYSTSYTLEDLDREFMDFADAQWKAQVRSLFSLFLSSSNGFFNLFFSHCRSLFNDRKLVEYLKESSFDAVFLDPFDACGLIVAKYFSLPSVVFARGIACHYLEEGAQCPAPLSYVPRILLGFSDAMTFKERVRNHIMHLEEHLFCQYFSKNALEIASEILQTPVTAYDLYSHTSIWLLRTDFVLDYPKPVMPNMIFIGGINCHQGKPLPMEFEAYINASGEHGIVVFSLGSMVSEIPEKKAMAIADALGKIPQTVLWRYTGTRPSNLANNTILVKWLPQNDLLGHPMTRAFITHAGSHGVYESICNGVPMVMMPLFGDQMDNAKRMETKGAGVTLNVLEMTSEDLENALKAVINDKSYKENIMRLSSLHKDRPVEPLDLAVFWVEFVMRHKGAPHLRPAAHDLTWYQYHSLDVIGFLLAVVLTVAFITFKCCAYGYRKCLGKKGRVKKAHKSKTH

[17] = biological target: T4, UGT1A1 (Homo sapiens, UniProt P22309); test: Glucuronidation by UGT1A1-over-expressing HEK 293 cell homogenate; details: 160 μM CLZ or 320 μM dmCLZ; up to 1 mg cell homogenate; UV and MRM detection
T4 sequence (P22309 26-533): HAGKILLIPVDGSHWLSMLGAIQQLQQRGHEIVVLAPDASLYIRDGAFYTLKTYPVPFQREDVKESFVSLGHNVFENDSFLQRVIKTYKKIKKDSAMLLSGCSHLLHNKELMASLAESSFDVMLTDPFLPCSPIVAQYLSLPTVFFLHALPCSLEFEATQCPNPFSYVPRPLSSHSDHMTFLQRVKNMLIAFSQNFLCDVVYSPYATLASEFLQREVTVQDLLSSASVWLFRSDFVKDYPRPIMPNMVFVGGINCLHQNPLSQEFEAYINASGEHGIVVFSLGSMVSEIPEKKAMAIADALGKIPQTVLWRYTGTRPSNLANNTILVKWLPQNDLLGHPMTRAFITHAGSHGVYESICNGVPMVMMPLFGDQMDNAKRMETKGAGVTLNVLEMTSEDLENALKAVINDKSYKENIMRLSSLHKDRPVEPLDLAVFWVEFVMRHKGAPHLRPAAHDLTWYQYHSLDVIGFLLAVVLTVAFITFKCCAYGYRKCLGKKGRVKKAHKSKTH

[18] = biological target: T5, UGT1A4 (Homo sapiens, UniProt P22310); test: Inhibition of glucuronide formation in UGT1A4-over-expressing cell homogenates; assay type: biochemical; details: 10 μM hecogenin
T5 sequence (P22310 29-534): T1 sequence (P22310 29-534)

[19] = tested on: Human liver microsomes (HLM); assay type: biochemical; details: 10 μM hecogenin; 160 μM CLZ; HLM
[20] = substrate: CN1CCN(C2=Nc3cc(Cl)ccc3Nc3ccccc32)CC1; test: cells, lysate or membranes named; details: other: substrate CLZ
[21] = substrate: Clc1ccc2c(c1)N=C(N1CCNCC1)c1ccccc1N2; test: cells, lysate or membranes named; details: other: substrate dmCLZ

In the case of `CN1CCN(C2=Nc3cc(Cl)ccc3Nc3ccccc32)CC1` [CLZ, Clozapine, reference compound], the “detectable glucuronidation activity (screen)” value [1] is given as “None”, the “administered dose being metabolized” value [2] is given as 97% and the “patients who fail to respond to CLZ treatment despite adequate dosing” value [2] is given as “Approximately 30%”. The “CLZ and dmCLZ glucuronides, share of all recovered metabolites in urine and bile” value ([2]; human subjects taking CLZ) was 33–38%, the “plasma concentrations (inter-individual variability for a given dose of CLZ)” value ([2]; patients) was 3 to 1507 ng/mL and the “detectable glucuronidation activity (screen)” value [3] was “None”. For the same molecule, the “decrease in Vmax, CLZ-5-N-glucuronide formation” value [4] was 21%, the “lower Vmax/KM, CLZ-5-N-glucuronide formation” value [4] was 20% and the “detectable glucuronidation activity (screen)” value [5] was “None”. The “decrease in KM, CLZ-5-N-glucuronide formation” value ([6]; vs UGT1A4^24Thr/48Leu variant) was 56%, the “decrease in KM, CLZ-5-N-glucuronide formation” value ([6]; vs wild-type UGT1A4^24Pro/48Leu) was 58% and the “detectable glucuronidation activity (screen)” value [7] was “detectable levels of activity”. The “detectable glucuronidation activity (screen)” value [8] was “None”, the “detectable glucuronidation activity (screen)” value [9] was “None” and the “detectable glucuronidation activity (screen)” value [10] was “None”. The “detectable glucuronidation activity (screen)” value [11] was “None”, the “detectable glucuronidation activity (screen)” value [12] was “detectable levels of activity; also recorded: barely above the limits of detection” and the “detectable glucuronidation activity (screen)” value [13] was “None”. For the same molecule, the “detectable glucuronidation activity (screen)” value [14] was “detectable levels of activity; also recorded: barely above the limits of detection”, the “detectable glucuronidation activity (screen)” value [15] was “None” and the “detectable glucuronidation activity (screen)” value [16] was “None”. For the same molecule, the “detectable glucuronidation activity (screen)” value [17] was “detectable levels of activity”.

With hecogenin the “inhibition of CLZ-5-N-glucuronide formation” value ([18]; 160 μM CLZ) was 77%, the “inhibition of CLZ-N^+-glucuronide formation” value ([18]; 160 μM CLZ) was 82% and the “inhibition of dmCLZ-5-N-glucuronide formation” value ([18]; 320 μM dmCLZ) was 81%. The “inhibition of CLZ-5-N-glucuronide formation” value [19] was 89 ± 3% and the “inhibition of CLZ-N^+-glucuronide formation” value [19] was 46 ± 5%.

B1: UGT1A1 (Homo sapiens) (protein)
chain: T4 sequence (P22309 26-533)
In the case of B1, the Km [20] is reported as 53 ± 2^a,b μM, the Vmax [20] is reported as 0.00086 ± 2e-05 µmol/min/mg and the Vmax/Km [20] is reported as 17 ± 0.6 µL/min/mg.

B2: UGT1A4^24Thr/48Leu (Homo sapiens) (protein)
chain: MARGLQVPLPRLATGLLLLLSVQPWAESGKVLVVPTDGSPWLSMREALRELHARGHQAVVLTPEVNMHIKEEKFFTLTAYAVPWTQKEFDRVTLGYTQGFFETEHLLKRYSRSMAIMNNVSLALHRCCVELLHNEALIRHLNATSFDVVLTDPVNLCGAVLAKYLSIPAVFFWRYIPCDLDFKGTQCPNPSSYIPKLLTTNSDHMTFLQRVKNMLYPLALSYICHTFSAPYASLASELFQREVSVVDLVSYASVWLFRGDFVMDYPRPIMPNMVFIGGINCANGKPLSQEFEAYINASGEHGIVVFSLGSMVSEIPEKKAMAIADALGKIPQTVLWRYTGTRPSNLANNTILVKWLPQNDLLGHPMTRAFITHAGSHGVYESICNGVPMVMMPLFGDQMDNAKRMETKGAGVTLNVLEMTSEDLENALKAVINDKSYKENIMRLSSLHKDRPVEPLDLAVFWVEFVMRHKGAPHLRPAAHDLTWYQYHSLDVIGFLLAVVLTVAFITFKCCAYGYRKCLGKKGRVKKAHKSKTH
In the case of B2, the Km [20] is reported as 167 ± 19^d μM and 459 ± 23^e μM, the Km [21] is reported as 440 ± 45^b μM and the Vmax [21] is reported as 0.0064 ± 0.0009 µmol/min/mg. It also gave a Vmax/Km [21] of 15 ± 1.5 µL/min/mg.

B3: UGT1A4^24Pro/48Leu (Homo sapiens) (protein)
chain: T1 sequence (P22310 29-534)
Work on B3 yielded a Km [21] of 379 ± 46 µM, a Vmax [21] of 0.01 µmol/min/mg and a Vmax/Km [21] of 28 µL/min/mg.

B4: UGT1A4^24Pro/48Val (Homo sapiens; L48V) (protein)
chain: T1 sequence (P22310 29-534) with L20V
In the case of B4, the Km [21] is reported as 173 ± 22^e μM, the Vmax [21] is reported as 0.017 ± 0.0013 µmol/min/mg and the Vmax/Km [21] is reported as 96 ± 8 µL/min/mg.
